Tests used:
H358 lung cancer cells = assay: [3H]-thymidine incorporation DNA synthesis assay; assay type: cell-based; conditions: for inhibition of DNA synthesis, single agent (FIG. 25): 1, 10 or 50 μM for 12 hours
Description: (A) Structures of 1a, and the acetylated side chain of a lysine residue within the polypeptide chain of a protein targeted by the acetylating enzyme (R1 and R2 are the main chain elements on both sides of the lysyl residue). (B) [^3H]-thymidine incorporation into DNA of H358 cells pulsed for 6 hrs at three different time points after the addition of increasing concentrations of 1a, i.e., at 6-12 hrs (12 hr curve), at 18-24 hours (24 hr curve), or at 42-48 hrs (48 hr curve). Incorporation is represented as a percentage relative to control (untreated) cells. (C) Cell cycle analysis of propidium iodide-stained cells harvested at various times after addition of 50 μM 1a. % of cells in G1, S, and G2 represents the average of two independent profiles. (D) Western analysis of histone H3 lysine 9 acetylation, histone H3 lysine 56 acetylation, histone H3 lysine 9 methylation, and total histone H3, before “c” or at the indicated times after addition of 50 μM 1a. Each lane represents 60 μg cellular protein.
Control cells were left untreated. […] Control cells were left untreated.
Cells were either labeled immediately before treatment (starting DNA synthesis rate), or subjected to the indicated treatments and then pulsed on successive days until day 4. DNA synthesis is represented as the percent of starting DNA synthesis rate. Viability was determined for each treatment condition 24 hours post-start of treatment by the trypan blue exclusion assay, with percentages of viable cells indicated to the right of the graph.
H358 cells (2,000/well) in 96-well plates were treated with 1, 10 or 50 μM of spd-1a, spd-2a, spd-3a, spm3, or spm2 for 12 hours. Triplicate wells of cells were pulsed 6 hours with 0.5 μCi [^3H]-thymidine (NEN, Boston Mass.) post-start of drug treatment, and harvested onto filter paper using a Brandel Harvester and subjected to scintillation counting. Untreated cells were pulsed 0-6 hrs to establish the initial rate of incorporation.
Cells were plated in 96-well plates (2000 cells per well to insure conditions for exponential growth for untreated cells over the time course of the experiment) and exposed to the following treatments: 1a (50 μM); camptothecin (Sigma, St Louis, Mo. 5 nM, 18 hours); cisplatin (Platinol, obtained through local pharmacies, 2 μM, 1 hour 15 minutes), 5-fluorouracil (5FU, Adrucil™, obtained through local pharmacies, 2 μM, 1 hour 15 minutes), Taxotere (provided by the late Dr. Pierre Potier, 5 nM, 18 hours). UVC treatment (40 J/m^2) using a Stratalinker™, Stratagene, La Jolla, Calif.) was carried using medium lacking phenol red. At 0-6 hr, 18-24 hr (day 1), 42-48 hr […], 66-72 hr (day 3), and 90-96 hr (day 4) post-start of treatment, triplicate wells were incubated with 0.5 μCi [^3H]-thymidine (NEN, Boston Mass.), harvested onto filter paper, and subjected to scintillation counting. Trypan blue exclusion assays for cell membrane integrity were carried out as known in the art.
The present inventors used [^3H]-thymidine incorporation assays to examine DNA synthesis in H358 lung cancer cells in the presence of varying concentrations of 1a. Cells were pulsed for 6 hours with [^3H]-thymidine at three different time points after the addition of 1a (i.e., at 6-12 hours, at 18-24 hours, and at 42-48 hours). The incorporation of [^3H]-thymidine into DNA decreased with increasing concentrations of 1a at all three time points, with the maximal effect occurring with the 6-12 hour pulse (FIG. 2B).
We then used [^3H]-thymidine incorporation assays to examine DNA synthesis in H358 lung cancer cells in the presence of 1a alone, or together with an 18 hour exposure to the DNA damaging drug, camptothecin (CPT), a plant alkaloid from which an important class of topoisomerase I-targeted chemotherapeutic agents (Hycamtin [topotecan] and Camptosar [irinotecan]) has been derived (Garcia-Carbonero, et al, 2002, Clin Cancer Res 8: 641-61). […]

GT41F skin fibroblasts = assay: 96-well MTS viability assay; assay type: cell-based, human; conditions: 3 days; for sensitivity of normal fibroblasts compared with cancer cell lines: single agent

CC(C)(COP(=O)(O)OP(=O)(O)OC[C@H]1O[C@@H](n2cnc3c(N)ncnc32)[C@H](O)[C@@H]1OP(=O)(O)O)[C@@H](O)C(=O)NCCC(=O)NCCSCC(=O)NCCCNCCCCN [1a, spermidine[N1]-CoA]
sensitization to cisplatin (CDDP), UVC irradiation and 5-FU in DNA synthesis assay (H358 lung cancer cells; 50 μM 1a + cisplatin 2 μM, UVC 40 J/m2 or 5FU 2 μM): sensitized | activity at 50 µM (H358 lung cancer cells; Homo sapiens, NCI-H358, 50 μM 1a + 5 nM camptothecin (18 h), 48 hours post-initiation, read-out: [3H]-thymidine incorporation, % of control incorporation): < 20% | IC50 (H358 lung cancer cells; Homo sapiens, NCI-H358, 6-12 hour [3H]-thymidine pulse, read-out: IC50 for inhibition of DNA synthesis): 50 to 100 µM

CC(=O)NCCSCC(=O)NCCCNCCCCN [3a]
sensitivity of normal fibroblasts compared with cancer cell lines (GT41F skin fibroblasts): less sensitive | cell viability retained (GT41F skin fibroblasts; spd-3a 1 μM): ~60% | inhibition of DNA synthesis, single agent (FIG. 25) (H358 lung cancer cells): inhibit DNA synthesis | suppression of DNA synthesis in combination with camptothecin (H358 lung cancer cells; 3a + CPT 5 nM 18 hours, pulse from 42 hours): effective

CC[C@@]1(O)C(=O)OCc2c1cc1n(c2=O)Cc2cc3ccccc3nc2-1 [camptothecin]
effect on [3H]-thymidine incorporation, single agent (H358 lung cancer cells; 1a 50 μM, camptothecin 5 nM (18 or 24 h)): no detectable effect

CC(=O)NCCSCC(=O)NCCCNCCCCNCCCN [spm-3]
sensitivity of normal fibroblasts compared with cancer cell lines (GT41F skin fibroblasts): sensitivity similar to that of H358 lung cancer cells | inhibition of DNA synthesis, single agent (FIG. 25) (H358 lung cancer cells): inhibit DNA synthesis

From US9107879B1, “Methods of increasing the cytotoxicity of chemotherapeutic agents with multisubstrate inhibitors of histone, protein-lys, polyamine acetylation, and polyamine metabolism” (Vanderbilt University, priority 2010, dated 2015)
